Assay results: ChEMBL document CHEMBL5724914, “Linking interpersonal differences in gut microbiota composition and drug biotransformation activity” (2024)

How the values were obtained:
[1] = (§1) The drug is tested on Z-014 corresponding to rat gut metagenome with ENA study accession number: PRJEB37062 and ENA sample accession number: ERS12561814 for biotransformation under anaerobic condition. The drug concentrations were measured over 9 timepoints collected between 0 and 24 hours of incubation by liquid-chromatography-coupled mass spectrometry (LC–MS); settings: 2 µM
[2] = human gut metagenome, 24 h, 2 µM
[3] = as §1, with “Z-023” for “Z-014”, “to” for “to rat gut”, “ERS12561822” for “ERS12561814”; settings: 2 µM
[4] = human gut metagenome, 24 h, 2 µM; remark: listed apart in the source
[5] = as §1, with “on WLS-086” for “on Z-014”, “to human” for “to rat”, “number: ERS12561752” for “number: ERS12561814”; settings: 2 µM
[6] = human gut metagenome, 24 h, 2 µM; remark: listed apart in the source
[7] = as §1, with “on Z-009” for “on Z-014”, “to pig” for “to rat”, “number: ERS12561809” for “number: ERS12561814”; settings: 2 µM
[8] = as §1, with “on Z-016” for “on Z-014”, “to mouse” for “to rat”, “number: ERS12561815” for “number: ERS12561814”; settings: 2 µM
[9] = as §1, with “Z-027” for “Z-014”, “to” for “to rat gut”, “ERS12561826” for “ERS12561814”; settings: 2 µM
[10] = human gut metagenome, 24 h, 2 µM; remark: listed apart in the source
[11] = as §1, with “on Z-001” for “on Z-014”, “to mouse” for “to rat”, “number: ERS12561801” for “number: ERS12561814”; settings: 2 µM
[12] = human gut metagenome, 24 h, 2 µM; remark: listed apart in the source
[13] = human gut metagenome, 24 h, 2 µM; remark: listed apart in the source
[14] = as §1, with “on Z-030” for “on Z-014”, “to mouse” for “to rat”, “number: ERS12561829” for “number: ERS12561814”; settings: 2 µM
[15] = as §1, with “on WLS-370” for “on Z-014”, “to human” for “to rat”, “number: ERS12561793” for “number: ERS12561814”; settings: 2 µM
[16] = human gut metagenome, 24 h, 2 µM; remark: listed apart in the source
[17] = as §1, with “Z-004” for “Z-014”, “to” for “to rat gut”, “ERS12561804” for “ERS12561814”; settings: 2 µM
[18] = as §1, with “on Z-003” for “on Z-014”, “to pig” for “to rat”, “number: ERS12561803” for “number: ERS12561814”; settings: 2 µM
[19] = human gut metagenome, 24 h, 2 µM; remark: listed apart in the source
[20] = human gut metagenome, 24 h, 2 µM; remark: listed apart in the source
Further: call rule not given here.

CCN(CC)C(C)CN1c2ccccc2Sc2ccccc21 (stereo not given) [ETHOPROPAZINE]
Bacterial Biotransformation [1]: Compound NOT metabolized | Bacterial Biotransformation [2]: Compound metabolized | Bacterial Biotransformation [3]: Compound metabolized | Bacterial Biotransformation [4]: Compound metabolized | Bacterial Biotransformation [5]: Compound metabolized | Bacterial Biotransformation [6]: Compound metabolized | Bacterial Biotransformation [7]: Compound metabolized | Bacterial Biotransformation [8]: Compound NOT metabolized | Bacterial Biotransformation [9]: Compound NOT metabolized | Bacterial Biotransformation [10]: Compound metabolized | Bacterial Biotransformation [11]: Compound metabolized | Bacterial Biotransformation [12]: Compound metabolized | Bacterial Biotransformation [13]: Compound metabolized | Bacterial Biotransformation [14]: Compound NOT metabolized | Bacterial Biotransformation [15]: Compound metabolized | Bacterial Biotransformation [16]: Compound metabolized | Bacterial Biotransformation [17]: Compound metabolized | Bacterial Biotransformation [18]: Compound metabolized | Bacterial Biotransformation [19]: Compound metabolized | Bacterial Biotransformation [20]: Compound metabolized

COc1cc2nc(N(C)CCCNC(=O)C3CCCO3)nc(N)c2cc1OC (stereo not given) [ALFUZOSIN]
Bacterial Biotransformation [1]: Compound NOT metabolized | Bacterial Biotransformation [2]: Compound metabolized | Bacterial Biotransformation [3]: Compound NOT metabolized | Bacterial Biotransformation [4]: Compound NOT metabolized | Bacterial Biotransformation [5]: Compound metabolized | Bacterial Biotransformation [6]: Compound metabolized | Bacterial Biotransformation [7]: Compound metabolized | Bacterial Biotransformation [8]: Compound NOT metabolized | Bacterial Biotransformation [9]: Compound NOT metabolized | Bacterial Biotransformation [10]: Compound NOT metabolized | Bacterial Biotransformation [11]: Compound metabolized | Bacterial Biotransformation [12]: Compound NOT metabolized | Bacterial Biotransformation [13]: Compound metabolized | Bacterial Biotransformation [14]: Compound NOT metabolized | Bacterial Biotransformation [15]: Compound metabolized | Bacterial Biotransformation [16]: Compound metabolized | Bacterial Biotransformation [17]: Compound NOT metabolized | Bacterial Biotransformation [18]: Compound metabolized | Bacterial Biotransformation [19]: Compound metabolized | Bacterial Biotransformation [20]: Compound NOT metabolized

COc1ccccc1OCC(O)COC(N)=O (stereo not given) [METHOCARBAMOL]
Bacterial Biotransformation [1]: Compound NOT metabolized | Bacterial Biotransformation [2]: Compound NOT metabolized | Bacterial Biotransformation [3]: Compound NOT metabolized | Bacterial Biotransformation [4]: Compound NOT metabolized | Bacterial Biotransformation [5]: Compound NOT metabolized | Bacterial Biotransformation [6]: Compound NOT metabolized | Bacterial Biotransformation [7]: Compound NOT metabolized | Bacterial Biotransformation [8]: Compound NOT metabolized | Bacterial Biotransformation [9]: Compound NOT metabolized | Bacterial Biotransformation [10]: Compound NOT metabolized | Bacterial Biotransformation [11]: Compound NOT metabolized | Bacterial Biotransformation [12]: Compound NOT metabolized | Bacterial Biotransformation [13]: Compound NOT metabolized | Bacterial Biotransformation [14]: Compound NOT metabolized | Bacterial Biotransformation [15]: Compound NOT metabolized | Bacterial Biotransformation [16]: Compound NOT metabolized | Bacterial Biotransformation [17]: Compound NOT metabolized | Bacterial Biotransformation [18]: Compound NOT metabolized | Bacterial Biotransformation [19]: Compound NOT metabolized | Bacterial Biotransformation [20]: Compound NOT metabolized

CCOC(=O)[C@H](CCc1ccccc1)N[C@@H](C)C(=O)N1[C@H](C(=O)O)C[C@H]2CCCC[C@@H]21 [TRANDOLAPRIL]
Bacterial Biotransformation [1]: Compound NOT metabolized | Bacterial Biotransformation [2]: Compound metabolized | Bacterial Biotransformation [3]: Compound metabolized | Bacterial Biotransformation [4]: Compound NOT metabolized | Bacterial Biotransformation [5]: Compound metabolized | Bacterial Biotransformation [6]: Compound metabolized | Bacterial Biotransformation [7]: Compound metabolized | Bacterial Biotransformation [8]: Compound NOT metabolized | Bacterial Biotransformation [9]: Compound NOT metabolized | Bacterial Biotransformation [10]: Compound NOT metabolized | Bacterial Biotransformation [11]: Compound NOT metabolized | Bacterial Biotransformation [12]: Compound metabolized | Bacterial Biotransformation [13]: Compound metabolized | Bacterial Biotransformation [14]: Compound NOT metabolized | Bacterial Biotransformation [15]: Compound NOT metabolized | Bacterial Biotransformation [16]: Compound metabolized | Bacterial Biotransformation [17]: Compound metabolized | Bacterial Biotransformation [18]: Compound metabolized | Bacterial Biotransformation [19]: Compound metabolized | Bacterial Biotransformation [20]: Compound metabolized

Cc1cc2c(cc1S(N)(=O)=O)S(=O)(=O)CCC2
Bacterial Biotransformation [1]: Compound NOT metabolized | Bacterial Biotransformation [2]: Compound NOT metabolized | Bacterial Biotransformation [3]: Compound NOT metabolized | Bacterial Biotransformation [4]: Compound NOT metabolized | Bacterial Biotransformation [5]: Compound NOT metabolized | Bacterial Biotransformation [6]: Compound NOT metabolized | Bacterial Biotransformation [7]: Compound NOT metabolized | Bacterial Biotransformation [8]: Compound NOT metabolized | Bacterial Biotransformation [9]: Compound NOT metabolized | Bacterial Biotransformation [10]: Compound NOT metabolized | Bacterial Biotransformation [11]: Compound NOT metabolized | Bacterial Biotransformation [12]: Compound NOT metabolized | Bacterial Biotransformation [13]: Compound NOT metabolized | Bacterial Biotransformation [14]: Compound NOT metabolized | Bacterial Biotransformation [15]: Compound NOT metabolized | Bacterial Biotransformation [16]: Compound NOT metabolized | Bacterial Biotransformation [17]: Compound NOT metabolized | Bacterial Biotransformation [18]: Compound NOT metabolized | Bacterial Biotransformation [19]: Compound NOT metabolized | Bacterial Biotransformation [20]: Compound NOT metabolized

O=C(Nc1ccccc1)OCC(CN1CCCCC1)OC(=O)Nc1ccccc1 (stereo not given) [DIPERODON]
Bacterial Biotransformation [1]: Compound NOT metabolized | Bacterial Biotransformation [2]: Compound metabolized | Bacterial Biotransformation [3]: Compound metabolized | Bacterial Biotransformation [4]: Compound NOT metabolized | Bacterial Biotransformation [5]: Compound metabolized | Bacterial Biotransformation [6]: Compound metabolized | Bacterial Biotransformation [7]: Compound metabolized | Bacterial Biotransformation [8]: Compound NOT metabolized | Bacterial Biotransformation [9]: Compound NOT metabolized | Bacterial Biotransformation [10]: Compound NOT metabolized | Bacterial Biotransformation [11]: Compound NOT metabolized | Bacterial Biotransformation [12]: Compound metabolized | Bacterial Biotransformation [13]: Compound metabolized | Bacterial Biotransformation [14]: Compound NOT metabolized | Bacterial Biotransformation [15]: Compound NOT metabolized | Bacterial Biotransformation [16]: Compound NOT metabolized | Bacterial Biotransformation [17]: Compound metabolized | Bacterial Biotransformation [18]: Compound metabolized | Bacterial Biotransformation [19]: Compound metabolized | Bacterial Biotransformation [20]: Compound metabolized

CN1CCC(=C2c3ccccc3CCc3cccnc32)CC1.O=C(O)/C=C\C(=O)O.O=C(O)/C=C\C(=O)O [AZATADINE MALEATE]
Bacterial Biotransformation [1]: Compound NOT metabolized | Bacterial Biotransformation [2]: Compound NOT metabolized | Bacterial Biotransformation [3]: Compound NOT metabolized | Bacterial Biotransformation [4]: Compound NOT metabolized | Bacterial Biotransformation [5]: Compound NOT metabolized | Bacterial Biotransformation [6]: Compound NOT metabolized | Bacterial Biotransformation [7]: Compound NOT metabolized | Bacterial Biotransformation [8]: Compound NOT metabolized | Bacterial Biotransformation [9]: Compound NOT metabolized | Bacterial Biotransformation [10]: Compound NOT metabolized | Bacterial Biotransformation [11]: Compound NOT metabolized | Bacterial Biotransformation [12]: Compound NOT metabolized | Bacterial Biotransformation [13]: Compound NOT metabolized | Bacterial Biotransformation [14]: Compound NOT metabolized | Bacterial Biotransformation [15]: Compound NOT metabolized | Bacterial Biotransformation [16]: Compound metabolized | Bacterial Biotransformation [17]: Compound NOT metabolized | Bacterial Biotransformation [18]: Compound NOT metabolized | Bacterial Biotransformation [19]: Compound metabolized | Bacterial Biotransformation [20]: Compound NOT metabolized
